Where two headings read alike, the source gives them in different places.
Assays:
[1] = molecular target: T1, glutathione-S-transferase (GST) tagged LXRbeta LBD (ligand binding domain) (Homo sapiens, UniProt P55055); assay: LanthaScreen TR-FRET Liver X Receptor Coactivator Assay, co-activator recruitment to LXRbeta LBD; assay type: biochemical; settings: for Emax: read-out: LXR beta Activity @ max dose (%); for EC50: potency (Inflection Point, IP), co-activator recruitment to LXRbeta LBD, in relation to T0901317
T1 construct: purchased Invitrogen pv4658.pps
T1 sequence (P55055 222-460 limits assumed): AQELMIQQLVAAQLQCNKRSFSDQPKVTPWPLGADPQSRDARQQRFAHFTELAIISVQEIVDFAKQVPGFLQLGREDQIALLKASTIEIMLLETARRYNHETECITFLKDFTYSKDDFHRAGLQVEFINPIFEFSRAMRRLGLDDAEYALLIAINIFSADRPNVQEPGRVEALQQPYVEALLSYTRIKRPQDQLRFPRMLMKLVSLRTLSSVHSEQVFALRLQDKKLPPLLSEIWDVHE
Procedure: (§1) Potency (Inflection Point, IP) and efficacy (Emax) are evaluated via compound-induced co-activator recruitment to glutathione-S-transferase (GST) tagged LXRbeta and LXRalpha LBD (ligand binding domain) proteins in relation to reference dual agonist compound T0901317 (N-(2,2,2-Trifluoroethyl)-N-[4-[2,2,2-trifluoro-1-hydroxy-1-(trifluoromethyl)ethyl] phenyl] benzenesulfonamide) using the LanthaScreen™ TR-FRET Liver X Receptor Coactivator Assays according to manufacturer's instructions (Invitrogen catalog number pv4658.pps and pv4655). While running the LanthaScreen™ TR-FRET Liver X Receptor Coactivator Assay, LXR alpha-LBD or LXR beta-LBD was added to ligand test compounds followed by addition of a mixture of a fluorescein-labelled coactivator peptide and terbium-conjugated anti-GST antibody. After an incubation period at room temperature, TR-FRET (time-resolved fluorescence resonance energy transfer) was measured using a filter-based instrument capable of TR-FRET, e.g. PerkinElmer Envision.

[2] = molecular target: T2, glutathione-S-transferase (GST) tagged LXRalpha LBD (ligand binding domain) (Homo sapiens, UniProt Q13133); assay: LanthaScreen TR-FRET Liver X Receptor Coactivator Assay, co-activator recruitment to LXRalpha LBD; assay type: biochemical; settings: for Emax: read-out: LXR alpha Activity @ max dose (%); for LXR alpha IP (nM) / EC50: potency (Inflection Point, IP), co-activator recruitment to LXRalpha LBD, in relation to T0901317; for EC50: read-out: LXR alpha IP
T2 construct: purchased Invitrogen pv4655
T2 sequence (Q13133 209-447 limits assumed): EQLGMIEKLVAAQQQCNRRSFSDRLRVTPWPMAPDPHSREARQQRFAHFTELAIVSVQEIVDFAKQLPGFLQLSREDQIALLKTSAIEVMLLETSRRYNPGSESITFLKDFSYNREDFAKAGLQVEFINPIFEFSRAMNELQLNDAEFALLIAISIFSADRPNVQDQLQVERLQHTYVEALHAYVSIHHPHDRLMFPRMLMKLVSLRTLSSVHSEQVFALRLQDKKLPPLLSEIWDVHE
Procedure: as §1

[3] = efficacy at max dose, in relation to reference dual agonist T0901317

SMILES	Emax [1, 3] [%]	EC50 ([1]; read-out: LXR beta IP) [nM]	Emax [2, 3] [%]	LXR alpha IP (nM) [2]	EC50 [2] [µM]	EC50 ([1]; LXR beta IP (nM)) [nM]	Emax [1] [%]	Emax [2] [%]
O=C(c1ccc(N2CCC(CC3CCN(C(=O)[C@](O)(c4cc(Cl)cc(Cl)c4)C(F)(F)F)CC3)CC2)cc1Cl)N1CCC[C@H]1CO [Example 4-24, (2R)-3-(4-{[1-(3-chloro-4-{[(2S)-2-(hydroxymethyl)pyrrolidin-1-yl]carbonyl}phenyl)piperidin-4-yl]methyl}piperidin-1-yl)-2-(3,5-dichlorophenyl)-1,1,1-trifluoro-3-oxopropan-2-ol]	28	7	0	NO IP				
COc1cccc([C@@](O)(C(=O)N2CCC(C)(CC3CCN(c4ccc(C(=O)N(C)C)c(Cl)c4)CC3)CC2)C(F)(F)F)c1 [Example 2-45, 2-chloro-N,N-dimethyl-4-[4-({4-methyl-1-[(2R)-3,3,3-trifluoro-2-hydroxy-2-(3-methoxyphenyl)propanoyl]piperidin-4-yl}methyl)piperidin-1-yl]benzamide]	18	7	0	NO IP				
CC(C)(C)OC(=O)NC1CN(C(=O)c2ccc(N3CCC(CC4CCN(C(=O)[C@](O)(c5cc(Cl)cc(Cl)c5)C(F)(F)F)CC4)CC3)cc2Cl)C1 [Example 4-25, tert-butyl [1-({2-chloro-4-[4-({1-[(2R)-2-(3,5-dichlorophenyl)-3,3,3-trifluoro-2-hydroxypropanoyl]piperidin-4-yl}methyl)piperidin-1-yl]phenyl}carbonyl)azetidin-3-yl]carbamate]	40	3	0	NO IP				
CN(C)C(=O)c1ccc(N2CCC(CC3CCN(C(=O)C4(c5ccccc5)CCCC4)CC3)CC2)nc1Cl [Example 7-64, 2-chloro-N,N-dimethyl-6-[4-({1-[(1-phenylcyclopentyl)carbonyl]piperidin-4-yl}methyl)piperidin-1-yl]pyridine-3-carboxamide]	80	57	19		0.663			
COc1cccc(C(O)(C(=O)N2CCC(CC3CCN(c4ccc(C(=O)N(C)C)c(Cl)c4)CC3)CC2)C(F)(F)F)c1F (stereo not shown) [Example 2-41, 2-chloro-N,N-dimethyl-4-[4-({1-[3,3,3-trifluoro-2-(2-fluoro-3-methoxyphenyl)-2-hydroxy-propanoyl]piperidin-4-yl}methyl)piperidin-1-yl]benzamide]	63	14	10	NO IP				
CN(C)C(=O)c1ccc(N2CCC(CC3CCN(C(=O)C(F)(F)c4ccccc4)CC3)CC2)nc1Cl [Example 7-86, 2-chloro-6-[4-({1-[difluoro(phenyl)acetyl]piperidin-4-yl}methyl)piperidin-1-yl]-N,N-dimethylpyridine-3-carboxamide]	75	165	32	NO IP				
O=C(c1ccc(N2CCC(CC3CCN(C(=O)[C@](O)(c4ccccc4)C(F)(F)F)CC3)CC2)cc1Cl)N1CC[C@H](F)C1 [Example 4-18]	67	59	39		0.485			
CN(C)C(=O)c1ccc(N2CCC(CC3CCN(C(=O)[C@](O)(c4cc(Cl)cc(Cl)c4)C(F)(F)F)CC3)CC2)cc1 [Example 2-133, 4-[4-({1-[(2R)-2-(3,5-dichloro-phenyl)-3,3,3-trifluoro-2-hydroxy-propanoyl]piperidin-4-yl}methyl)piperidin-1-yl]-N,N-dimethyl-benzamide]	54	36	6	NO IP				
CNC(=O)c1ccc(N2CCC(OC3CCN(C(=O)C(O)(c4cccc(C(F)(F)F)c4)C(F)(F)F)CC3)CC2)cc1Cl (stereo not shown) [Example 7-28, 2-chloro-N-methyl-4-{4-[(1-{3,3,3-trifluoro-2-hydroxy-2-[3-(trifluoromethyl)phenyl]propanoyl}piperidin-4-yl)oxy]piperidin-1-yl} benzamide]	105	243	28		2.02			
CNC(=O)c1ccc(N2CCC(CC3CCN(C(=O)C(O)(C(C)C)C(F)(F)F)CC3)CC2)nc1Cl (stereo not shown) [Example 7-143, 2-chloro-6-[4-({1-[2-hydroxy-3-methyl-2-(trifluoromethyl)butanoyl]piperidin-4-yl}methyl)piperidin-1-yl]-N-methylpyridine-3-carboxamide]	104	327	58		1.31			
CN(C)C(=O)c1ccc(N2CCC(CC3CCN(C(=O)[C@](O)(c4cc(F)cc(Cl)c4)C(F)(F)F)CC3)CC2)cc1 [Example 2-139, 4-[4-({1-[(2R)-2-(3-chloro-5-fluorophenyl)-3,3,3-trifluoro-2-hydroxy-propanoyl]piperidin-4-yl}methyl)piperidin-1-yl]-N,N-dimethyl-benzamide]	95	14	36		0.266			
Cc1nc(N2CCC(CC3CCN(C(=O)[C@](O)(c4cc(Cl)cc(Cl)c4)C(F)(F)F)CC3)CC2)ccc1C(=O)N(C)C [Example 7-9, 6-[4-({1-[(2R)-2-(3,5-dichlorophenyl)-3,3,3-trifluoro-2-hydroxypropanoyl]piperidin-4-yl}methyl)piperidin-1-yl]-N,N,2-trimethylpyridine-3-carboxamide]	70	12	3	NO IP				
CN(CCn1cncn1)C(=O)c1ccc(N2CCC(CC3CCN(C(=O)[C@](O)(c4cc(Cl)cc(Cl)c4)C(F)(F)F)CC3)CC2)cc1Cl [Example 4-26, 2-chloro-4-[4-({1-[(2R)-2-(3,5-dichlorophenyl)-3,3,3-trifuoro-2-hydroxypropanoyl]piperidin-4-yl}methyl)piperidin-1-yl]-N-methyl-N-[2-(1H-1,2,4-triazol-1-yl)ethyl]benzamide]	67	4	3	NO IP				
CCOc1cccc([C@@](O)(C(=O)N2CC(CC3CCN(c4ccc(C(=O)N(C)C)c(Cl)n4)CC3)C2)C(F)(F)F)c1 [Example 7-44, 2-chloro-6-[4-({1-[(2R)-2-(3-ethoxyphenyl)-3,3,3-trifluoro-2-hydroxypropanoyl]azetidin-3-yl}methyl)piperidin-1-yl]-N,N-dimethylpyridine-3-carboxamide]	75	34	8	NO IP				
CN(C)C(=O)c1ccc(N2CCC(SC3CCN(C(=O)[C@](O)(c4cccc(OC(F)(F)F)c4)C(F)(F)F)CC3)CC2)nc1Cl [Example 9-1, (R)-2-chloro-N,N-dimethyl-6-(4-(1-(3,3,3-trifluoro-2-hydroxy-2-(3-(trifluoromethoxy)phenyl)propanoyl)piperidin-4-ylthio)piperidin-1-yl)nicotinamide]					0.546	13	60	21
CN(Cc1ccon1)C(=O)c1ccc(N2CCC(CC3CCN(C(=O)[C@](O)(c4ccccc4)C(F)(F)F)CC3)CC2)cc1Cl [Example 4-10, 2-chloro-N-(isoxazol-3-ylmethyl)-N-methyl-4-[4-({1-[(2R)-3,3,3-trifluoro-2-hydroxy-2-phenylpropanoyl]piperidin-4-yl}methyl)piperidin-1-yl]benzamide]	62	8	30		0.246			
